{"source": "paper PMC12005229", "about": "“Final results from the phase Ia/Ib study of the novel bromodomain and extra-terminal domain inhibitor, BI 894999, in patients with advanced solid tumors or diffuse large B-cell lymphoma” (ESMO Open, 2025)", "key": {"[1]": {"test_system": "patients with advanced solid tumors (SCLC, CRC, mCRPC, NUT carcinoma)", "test": "phase Ib expansion: tumor response (RECIST 1.1), PFS, OS", "type": "in vivo, human", "conditions": "for Best overall response: complete response / Best overall response: not evaluable / Best overall response: partial response / Best overall response: progressive disease / Best overall response: stable disease / Disease control / Median PFS / Objective response / Median OS: phase Ib", "protocol": "PFS was measured for the period from the start of treatment to the occurrence of progressive disease or death. Tumor response was measured using RECIST 1.1[28] for patients with solid tumors and RECIL 2017[29] for those with DLBCL. OS was assessed in patients with NUT carcinoma; the OS status was to continue until 12 months after the end of the study.\nSupplementary Table 1. […]\n• Objective response (OR), defined as complete response (CR) or partial response (PR) with tumor assessment during treatment period for each schedule according to Response Evaluation Criteria in Solid Tumors (RECIST) version 1.1. For DLBCL patients, a minor response according to Response Evaluation Criteria in Lymphoma (RECIL) 2017 was not part of an OR […]\n• Progression-free survival (PFS), defined from date of start of BI 894999 to the date of objective disease progression or death, whichever was earlier, with tumor assessment every 2 cycles (every 6 weeks for Schedule B if no delays or as close as possible to the end of the second of the 2 cycles of treatment if there was a delay) during the treatment period\nRadiological PFS with tumor assessment by bone scan every 4 cycles for mCRPC patients with non-measurable disease by RECIST 1.1 […]\n• Overall survival in patients with NUT carcinoma. This was for patients in the trial after approval of […]\nThe overall survival status was to continue until 12 months after the end of trial […]\nAUC0–24, area under the plasma concentration–time curve over the 24-hour dosing interval; AUCτ, ss , area under the plasma concentration–time curve over the dosing interval τ at steady state; AE, adverse event; Cmax, maximal exposure; Cma x , s s , maximal exposure at steady state; DLBCL, diffuse large B- cell lymphoma; DLT, dose-limiting toxicity; mCRPC, metastatic castration-resistant prostate cancer; NUT, nuclear protein in […]"}, "[2]": {"test_system": "HEXIM1, HIST2H2BF, and CCR2", "test": "NanoString gene expression in blood (target engagement)", "type": "in vivo, human", "protocol": "The evaluation of biomarkers to identify patient subgroups with differential prognosis or response to treatment was exploratory, with no formal endpoints defined. Blood samples were assessed using an in-house-designed NanoString panel (NanoString, Seattle, WA) measuring gene expression levels of HEXIM1, HIST2H2BF, and CCR2 over all time points, and postdose expression levels of HEXIM1, HIST2H2BF, and CCR2 on days 14 and 15. HEXIM1 is modulated by BET family proteins and is considered a robust pharmacodynamic marker of BET inhibition,[30] whereas HIST2H2BF and CCR2 are involved in cancer pathways.[31]^,[32]\nTotal RNA was extracted from whole blood using PAXgene Blood RNA kit (Qiagen, Hilden, Germany) following the manufacturer’s instructions. Total RNA was quantified by direct absorbance measurement at 260 nm using a NanoDrop Spectrophotometer (Thermo Fisher, Waltham, MA). Quality check was carried out by additional measurement of absorbance at 280 nm and calculation of the absorbance ratio OD260/OD280.\nmRNA expression was assessed using a custom nCounter® (NanoString, Seattle, WA) codeset generated for the genes of interest plus housekeeping genes. Probes were hybridized to 150 ng of total RNA for 19 h at 65°C and applied to the nCounter® Preparation Station for automated removal of excess probe and immobilization of probe–transcript complexes on a streptavidin-coated cartridge. Data were collected using the nCounter® Digital Analyzer by counting the individual barcodes. Data were analyzed using an in-house analysis pipeline that follows the latest NanoString Technologies standards for the analysis of nCounter® data. The analysis pipeline includes quality checking of the raw data using the NAnostring quality Control dasHbOard (NACHO), a comprehensive method to optimize the quality control of nCounter® data.[33] The housekeeping genes ACTB, GAPDH, HPRT1, MGAT1, and TMED9 were used for normalization."}, "[3]": {"test_system": "BRD4-BD1", "parameters": "method as in PMID 35444289", "conditions": "read-out: IC50, inhibition of interaction of acetylated histone H4-derived peptide with BRD4-BD1; cited from earlier work"}, "[4]": {"test_system": "colorectal cancer (CRC) cell lines", "parameters": "method as in earlier work", "conditions": "cited from earlier work"}, "[5]": {"test_system": "nuclear protein in testis (NUT) carcinoma xenograft models", "parameters": "method as in PMID 35444289", "conditions": "cited from earlier work"}}, "data": [{"smiles": "CNc1nc(-c2nc3ccc(N4CCN(C)CC4)cc3n2Cc2ccccc2)cn2c(C)nnc12", "note": "[BI 894999]", "values": [{"measurement": "patients with SD", "setting": "[1]; CRC", "value": 2, "unit": "n"}, {"measurement": "observed objective response rate", "setting": "[1]; NUT carcinoma", "value": "< 10", "unit": "%"}, {"measurement": "patients not assessable", "setting": "[1]; NUT carcinoma, 42 patients", "value": 19.0, "unit": "%"}, {"measurement": "patients with SD", "setting": "[1]; NUT carcinoma, 42 patients", "value": 31.0, "unit": "%"}, {"measurement": "patients with complete response", "setting": "[1]; NUT carcinoma, 42 patients", "value": 1, "unit": "n"}, {"measurement": "patients with confirmed CR", "setting": "[1]; NUT carcinoma, 42 patients", "value": 2.4, "unit": "%"}, {"measurement": "patients with disease control", "setting": "[1]; NUT carcinoma, 42 patients", "value": 16, "unit": "patients"}, {"measurement": "patients with progressive disease", "setting": "[1]; NUT carcinoma, 42 patients", "value": 42.9, "unit": "%"}, {"measurement": "patients with responses", "setting": "[1]; NUT carcinoma, 42 patients", "value": 7.1, "unit": "%"}, {"measurement": "duration of response (DOR) of confirmed CR", "setting": "[1]; NUT carcinoma, one patient", "value": 253, "unit": "days"}, {"measurement": "duration of response (DOR) of confirmed PR", "setting": "[1]; NUT carcinoma, one patient", "value": 588, "unit": "days"}, {"measurement": "patients with SD", "setting": "[1]; SCLC", "value": 1, "unit": "n"}, {"measurement": "patients with SD", "setting": "[1]; mCRPC", "value": 2, "unit": "n"}, {"measurement": "duration of response (DOR) of confirmed PR", "setting": "[1]; mCRPC, one patient", "value": 46, "unit": "days"}, {"measurement": "patients not assessable", "setting": "[1]; other solid tumor types n = 37", "value": 24.3, "unit": "%"}, {"measurement": "patients with SD", "setting": "[1]; other solid tumor types n = 37", "value": 13.5, "unit": "%"}, {"measurement": "patients with confirmed PR (mCRPC)", "setting": "[1]; other solid tumor types n = 37", "value": 2.7, "unit": "%"}, {"measurement": "patients with progressive disease", "setting": "[1]; other solid tumor types n = 37", "value": 59.5, "unit": "%"}, {"measurement": "patients with confirmed CR (BOR)", "setting": "[1]; phase Ib n = 79", "value": 1.3, "unit": "%"}, {"measurement": "Best overall response: complete response", "setting": "[1]; CRC", "value": "0 (0.0) n (%)"}, {"measurement": "Best overall response: not evaluable", "setting": "[1]; CRC", "value": "2 (14.3) n (%)"}, {"measurement": "Best overall response: partial response", "setting": "[1]; CRC", "value": "0 (0.0) n (%)"}, {"measurement": "Best overall response: progressive disease", "setting": "[1]; CRC", "value": "10 (71.4) n (%)"}, {"measurement": "Best overall response: stable disease", "setting": "[1]; CRC", "value": "2 (14.3) n (%)"}, {"measurement": "Disease control", "setting": "[1]; CRC", "value": "2 (14.3) n (%)"}, {"measurement": "Median PFS", "setting": "[1]; CRC", "value": 5.6, "unit": "weeks"}, {"measurement": "Objective response", "setting": "[1]; CRC", "value": "0 (0.0) n (%)"}, {"measurement": "Best overall response: complete response", "setting": "[1]; NUT carcinoma (Schedule B)", "value": "0 (0.0) n (%)"}, {"measurement": "Best overall response: not evaluable", "setting": "[1]; NUT carcinoma (Schedule B)", "value": "3 (15.0) n (%)"}, {"measurement": "Best overall response: partial response", "setting": "[1]; NUT carcinoma (Schedule B)", "value": "1 (5.0) n (%)"}, {"measurement": "Best overall response: progressive disease", "setting": "[1]; NUT carcinoma (Schedule B)", "value": "9 (45.0) n (%)"}, {"measurement": "Best overall response: stable disease", "setting": "[1]; NUT carcinoma (Schedule B)", "value": "7 (35.0) n (%)"}, {"measurement": "Disease control", "setting": "[1]; NUT carcinoma (Schedule B)", "value": "8 (40.0) n (%)"}, {"measurement": "Median OS", "setting": "[1]; NUT carcinoma (Schedule B)", "value": 6.6, "unit": "weeks"}, {"measurement": "Median PFS", "setting": "[1]; NUT carcinoma (Schedule B)", "value": 6.9, "unit": "weeks"}, {"measurement": "Objective response", "setting": "[1]; NUT carcinoma (Schedule B)", "value": "1 (5.0) n (%)"}, {"measurement": "Best overall response: complete response", "setting": "[1]; NUT carcinoma (Schedule C)", "value": "1 (4.5) n (%)"}, {"measurement": "Best overall response: not evaluable", "setting": "[1]; NUT carcinoma (Schedule C)", "value": "5 (22.7) n (%)"}, {"measurement": "Best overall response: partial response", "setting": "[1]; NUT carcinoma (Schedule C)", "value": "1 (4.5) n (%)"}, {"measurement": "Best overall response: progressive disease", "setting": "[1]; NUT carcinoma (Schedule C)", "value": "9 (40.9) n (%)"}, {"measurement": "Best overall response: stable disease", "setting": "[1]; NUT carcinoma (Schedule C)", "value": "6 (27.3) n (%)"}, {"measurement": "Disease control", "setting": "[1]; NUT carcinoma (Schedule C)", "value": "8 (36.4) n (%)"}, {"measurement": "Median OS", "setting": "[1]; NUT carcinoma (Schedule C)", "value": 15.4, "unit": "weeks"}, {"measurement": "Median PFS", "setting": "[1]; NUT carcinoma (Schedule C)", "value": 7.8, "unit": "weeks"}, {"measurement": "Objective response", "setting": "[1]; NUT carcinoma (Schedule C)", "value": "2 (9.1) n (%)"}, {"measurement": "Median OS", "setting": "[1]; NUT carcinoma total", "value": 15.4, "unit": "weeks"}, {"measurement": "Best overall response: complete response", "setting": "[1]; SCLC", "value": "0 (0.0) n (%)"}, {"measurement": "Best overall response: not evaluable", "setting": "[1]; SCLC", "value": "3 (25.0) n (%)"}, {"measurement": "Best overall response: partial response", "setting": "[1]; SCLC", "value": "0 (0.0) n (%)"}, {"measurement": "Best overall response: progressive disease", "setting": "[1]; SCLC", "value": "8 (66.7) n (%)"}, {"measurement": "Best overall response: stable disease", "setting": "[1]; SCLC", "value": "1 (8.3) n (%)"}, {"measurement": "Disease control", "setting": "[1]; SCLC", "value": "1 (8.3) n (%)"}, {"measurement": "Median PFS", "setting": "[1]; SCLC", "value": 5.6, "unit": "weeks"}, {"measurement": "Objective response", "setting": "[1]; SCLC", "value": "0 (0.0) n (%)"}, {"measurement": "Best overall response: complete response", "setting": "[1]; mCRPC", "value": "0 (0.0) n (%)"}, {"measurement": "Best overall response: not evaluable", "setting": "[1]; mCRPC", "value": "4 (36.4) n (%)"}, {"measurement": "Best overall response: partial response", "setting": "[1]; mCRPC", "value": "1 (9.1) n (%)"}, {"measurement": "Best overall response: progressive disease", "setting": "[1]; mCRPC", "value": "4 (36.4) n (%)"}, {"measurement": "Best overall response: stable disease", "setting": "[1]; mCRPC", "value": "2 (18.2) n (%)"}, {"measurement": "Disease control", "setting": "[1]; mCRPC", "value": "3 (27.3) n (%)"}, {"measurement": "Median PFS", "setting": "[1]; mCRPC", "value": 11.9, "unit": "weeks"}, {"measurement": "Objective response", "setting": "[1]; mCRPC", "value": "1 (9.1) n (%)"}, {"measurement": "Best overall response: complete response", "setting": "[1]; total", "value": "1 (1.3) n (%)"}, {"measurement": "Best overall response: not evaluable", "setting": "[1]; total", "value": "17 (21.5) n (%)"}, {"measurement": "Best overall response: partial response", "setting": "[1]; total", "value": "3 (3.8) n (%)"}, {"measurement": "Best overall response: progressive disease", "setting": "[1]; total", "value": "40 (50.6) n (%)"}, {"measurement": "Best overall response: stable disease", "setting": "[1]; total", "value": "18 (22.8) n (%)"}, {"measurement": "Disease control", "setting": "[1]; total", "value": "22 (27.8) n (%)"}, {"measurement": "Median PFS", "setting": "[1]; total", "value": 6.9, "unit": "weeks"}, {"measurement": "Objective response", "setting": "[1]; total", "value": "4 (5.1) n (%)"}, {"measurement": "target engagement (≥2 of 3 genes with twofold or greater change)", "setting": "[2]; phase Ia DLBCL patient blood samples", "value": "target engagement was seen at all dose levels"}, {"measurement": "HEXIM1 induction, median fold change from baseline", "setting": "[2]; phase Ib, NUT carcinoma, blood", "value": 1.93}, {"measurement": "target engagement (≥2 of 3 genes with twofold or greater change)", "setting": "[2]; phase Ib, blood samples from the various solid tumor entities", "value": "all showed target engagement"}, {"measurement": "IC50", "setting": "[3]", "value": "5 ± 3", "unit": "nM"}, {"measurement": "activity against colorectal cancer (CRC) cell lines", "setting": "[4]", "value": "demonstrated activity"}, {"measurement": "effect in NUT carcinoma xenograft models", "setting": "[5]", "value": "tumor regressions"}]}]}
